{"source": "ChEMBL document CHEMBL5579875", "about": "“Discovery of VU6008677: A Structurally Distinct Tricyclic M4 Positive Allosteric Modulator with Improved CYP450 Profile” (ACS Med Chem Lett, 2024)", "key": {"[1]": {"experiment": "Plasma protein binding in rat assessed as unbound fraction at 5 uM incubated for 6 hrs by LC-MS/MS analysis", "format": "ADME, cell-free"}, "[2]": {"experiment": "Plasma protein binding in human assessed as unbound fraction at 5 uM incubated for 6 hrs by LC-MS/MS analysis", "format": "ADME, cell-free"}, "[3]": {"experiment": "Unbound fraction in rat brain homogenate at 1 uM incubated for 6 hrs by LC-MS/MS analysis", "format": "ADME, tissue-based"}}}
{"smiles": "Cc1nc2sc3c(NC4CC4)ncnc3c2c(C)c1Cl.Cl", "values": [{"measurement": "Fu", "setting": "[1]", "result": 0.01}, {"measurement": "Fu", "setting": "[2]", "result": 0.004}]}
{"smiles": "Cc1c(Cl)cnc2sc3c(NC4CC(c5ccncc5)C4)ncnc3c12", "note": "(stereo not given)", "values": [{"measurement": "Fu", "setting": "[3]", "result": 0.005}, {"measurement": "Fu", "setting": "[1]", "result": 0.01}, {"measurement": "Fu", "setting": "[2]", "result": 0.01}]}
